The results in this text go back to paper PMC3997506, “Novel PPAR Pan Agonist, ZBH Ameliorates Hyperlipidemia and Insulin Resistance in High Fat Diet Induced Hyperlipidemic Hamster” (PLoS ONE, 2014).

The subject of one test is 3T3-L1 adipocytes. In words: Adiponectin expression in 3T3-L1 adipocytes. The format is cell-based. The note with it: 10–100 µM, dose dependent, data not shown.
The subject of the next test is SIRT1 mRNA. The test can be described thus: Quantitative real-time PCR of tissues of hyperlipidemic hamsters. Format: in vivo, golden Syrian hamsters (Mesocricetus auratus). The note with it: short-term (3 days) and chronic (5 weeks) treatment. As to the method:
To determine the relative mRNA expression levels of lipid metabolism-related genes, total RNA was isolated from the liver, white adipose tissue (WAT) or muscle and real-time PCR was performed with the ABI PRISM 7300 sequence detection system (Applied Biosystems, Warrington, UK) as previously described. The relative amount of all mRNAs was calculated using the comparative CT method. Target gene expression is presented relative to β-actin expression.
Figure 9 Effects of ZBH on gene expression in hyperlipidemic hamsters. Relative gene expression of the indicated genes in the liver (A and B), WAT (C and D) and skeletal muscle (E and F) of hyperlipidemic hamsters following 3 days (A, C and E) and/or 5 weeks (B, D and F) of ZBH or BEZ administration was determined by QPCR. Results are normalized to β-actin and expressed as mean fold increase of mRNA ±SD compared to the normal hamsters (NC). n = 3. *P<0.05, **P<0.01, ***P<0.001 vs. MC group.
Background: Quantitative PCR measures a nucleic acid by following its amplification.

The next test addresses T1, SIRT1 (Homo sapiens, UniProt Q96EB6).
T1 construct: purchased Cayman chemical
T1 sequence (Q96EB6 1-747): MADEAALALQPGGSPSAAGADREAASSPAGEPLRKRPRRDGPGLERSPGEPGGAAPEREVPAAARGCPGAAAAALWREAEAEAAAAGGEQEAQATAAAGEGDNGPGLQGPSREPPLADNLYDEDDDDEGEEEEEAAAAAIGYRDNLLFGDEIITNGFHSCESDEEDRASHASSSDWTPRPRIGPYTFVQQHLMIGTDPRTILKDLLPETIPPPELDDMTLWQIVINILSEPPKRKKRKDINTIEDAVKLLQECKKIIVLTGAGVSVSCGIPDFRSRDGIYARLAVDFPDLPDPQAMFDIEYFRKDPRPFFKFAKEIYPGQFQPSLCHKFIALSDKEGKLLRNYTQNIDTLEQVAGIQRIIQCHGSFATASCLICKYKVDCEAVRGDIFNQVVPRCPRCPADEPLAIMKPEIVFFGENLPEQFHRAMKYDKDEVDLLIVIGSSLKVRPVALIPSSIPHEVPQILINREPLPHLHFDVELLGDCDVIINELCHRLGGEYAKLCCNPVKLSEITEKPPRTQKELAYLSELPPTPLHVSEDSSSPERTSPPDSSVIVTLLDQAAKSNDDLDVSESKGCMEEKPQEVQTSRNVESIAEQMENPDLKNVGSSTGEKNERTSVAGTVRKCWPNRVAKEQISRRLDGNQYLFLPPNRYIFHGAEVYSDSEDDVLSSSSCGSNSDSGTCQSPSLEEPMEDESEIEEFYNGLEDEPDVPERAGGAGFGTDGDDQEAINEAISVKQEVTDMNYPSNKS
In words: SIRT1 enzyme activity assay (Direct Fluorescent Screening Assay kit). The note with it: read-out: SIRT1 maximal activation. The format is biochemical. As to the method:
SIRT1 enzyme activity was assayed with the SIRT1 Direct Fluorescent Screening Assay kit (Cayman chemical, MI, USA), according to the manufacturer’s instructions. Fluorescence was measured on an EnVision Multilabel Plate Reader (PerkinElmer, CA, USA). DMSO was used as a negative control and also as a solvent for resveratrol and ZBH.
Figure 4 Activation of SIRT1 by ZBH. SIRT1 enzyme activity was measured after treatment with ZBH and Resveratrol, and the fluorescence was tested on EnVision Multilabel Plate Reader. Values are mean±SE, n = 3.

For another test, the target named is T2, hPPARδ (Homo sapiens, UniProt Q03181).
T2 sequence (Q03181 171-441 limits assumed): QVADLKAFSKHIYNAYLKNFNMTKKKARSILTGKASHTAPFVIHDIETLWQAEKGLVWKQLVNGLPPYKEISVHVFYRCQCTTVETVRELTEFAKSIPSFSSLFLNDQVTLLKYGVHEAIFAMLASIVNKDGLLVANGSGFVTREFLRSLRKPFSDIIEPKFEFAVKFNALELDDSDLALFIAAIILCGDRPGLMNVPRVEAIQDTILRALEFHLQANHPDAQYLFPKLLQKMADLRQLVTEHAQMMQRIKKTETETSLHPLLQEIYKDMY
The test can be described thus: In vitro transactivation assay, GAL4-hPPAR luciferase reporter in HEK-293 cells. Format: cell-based. The note with it: HEK-293, 24 h treatment. As to the method:
(§1) Transactivation of PPARs was analyzed in a cell-based luciferase reporter assay using HEK-293 cells transiently transfected to express hPPAR-GAL4 chimeric receptors with plasmids GAL4-hPPAR α, γ, or δ, and pUAS (5x)-tk-luc receptor vector as previously described. 24 h after transfection, cells were treated with the indicated compounds, followed by the measurement of luciferase activity 24 h later. Mean values represent those obtained from at least three independent experiments performed in triplicate and normalized by the Renilla luciferase reading.
(§2) HEK-293 cells transiently transfected to express hPPAR-GAL4 chimeric receptors with plasmids GAL4-hPPAR α, γ, or δ, and pUAS (5x)-tk-luc receptor vector. 24 h after transfection, cells were treated with the indicated compounds at various concentrations followed by the measurement of luciferase activity 24 h after treatment. The results shown are the mean values obtained from at least three independent experiments performed in triplicate normalized by the Renilla luciferase reading.
A general note: A reporter such as luciferase makes a cellular process visible.

The next test has as its target T3, hPPARγ (Homo sapiens, UniProt P37231).
T3 sequence (P37231 238-505 limits assumed): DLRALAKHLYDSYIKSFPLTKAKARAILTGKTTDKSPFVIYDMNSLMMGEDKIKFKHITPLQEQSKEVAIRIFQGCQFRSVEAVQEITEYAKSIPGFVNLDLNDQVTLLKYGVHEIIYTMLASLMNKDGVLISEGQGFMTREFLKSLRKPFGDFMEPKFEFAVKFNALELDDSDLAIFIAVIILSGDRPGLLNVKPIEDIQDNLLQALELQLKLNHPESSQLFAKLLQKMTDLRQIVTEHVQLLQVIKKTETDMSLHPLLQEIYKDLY
The test is described as above. The format is cell-based. As to conditions: HEK-293, 24 h treatment. As to the method:
as §1, §2

`COc1ccc(/C=C/c2cc(OC)cc(OCCCC(C)(C)C(=O)O)c2)cc1` [ZBH, (E)-5-(3-methoxy-5-(4-methoxystyryl)phenoxy) -2,2-dimethylpentanoic acid]: the adiponectin expression entry in the test on 3T3-L1 adipocytes was “dramatically up-regulate”. Further, the “SIRT1 mRNA expression in liver, adipose tissue and skeletal muscle” value in the test on SIRT1 mRNA is reported as “upregulated”. Besides, on SIRT1, the Emax is 136%. The EC50 (in general, the concentration needed to bring the measured effect to its halfway point) on hPPARδ turned out to be 19.2 µM; at hPPARγ, 25.4 µM.
